From US7771978B2, “β1,4mannosyltransferases” (priority 2003, dated 2010) come the findings set out here.

This test concerns the target T1, Egghead β1-4-mannosyltransferase (Drosophila melanogaster, UniProt O01346).
T1 construct: a secreted version of egghead was prepared as described for the full length construct; made in house; host or cells: baculovirus-infected Sf9 and High Five insect cells (microsomal fractions)
T1 sequence (O01346 1-457): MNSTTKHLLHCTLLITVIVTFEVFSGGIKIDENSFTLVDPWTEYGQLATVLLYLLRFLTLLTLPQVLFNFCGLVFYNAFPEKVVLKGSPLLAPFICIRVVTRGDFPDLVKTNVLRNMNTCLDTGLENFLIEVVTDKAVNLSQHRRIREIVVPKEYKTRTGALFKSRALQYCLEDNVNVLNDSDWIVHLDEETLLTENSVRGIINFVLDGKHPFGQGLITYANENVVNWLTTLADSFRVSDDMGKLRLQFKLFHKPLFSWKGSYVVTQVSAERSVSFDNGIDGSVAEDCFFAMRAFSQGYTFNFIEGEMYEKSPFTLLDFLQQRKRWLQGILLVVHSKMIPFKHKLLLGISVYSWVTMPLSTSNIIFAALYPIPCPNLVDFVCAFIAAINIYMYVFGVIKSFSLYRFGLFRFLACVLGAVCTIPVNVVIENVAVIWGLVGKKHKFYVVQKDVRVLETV
Briefly: Egghead mannosyltransferase enzyme assay with soluble acceptor and donor substrates (microsomal fractions). The test is classed as biochemical. Conditions: for effect of divalent cation salt on enzyme activity: addition of 5 to 10 mM; for acceptor substrate activity (in words): microsomal fractions of High Five cells; for Substrate specificities of Egghead β1-4-mannosyltransferase, activity at 1 mM: acceptor substrate 1 mM; for Substrate specificities of Egghead β1-4-mannosyltransferase, activity at 1 mM / Substrate specificities of Egghead β1-4-mannosyltransferase, activity at 5 mM: microsomes of pVL-Egghead infected High Five cells, GalNAc-T4 background subtracted; for Substrate specificities of Egghead β1-4-mannosyltransferase, activity at 5 mM: acceptor substrate 5 mM; for donor substrate utilisation by egghead (in words): donor sugar nucleotides tested under similar conditions. The protocol:
Initial assays of activity included a screen with high concentrations of monosaccharide substrates and different donor substrates.
An expression construct of the full coding region of egghead was prepared by RT-PCR using D. melanogaster mRNA and the sense primer Egh001 (5′-[…]-3′, SEQ ID NO: 4) with a BglII restriction site and the anti-sense primer Egh002 (5′-[…]-3′, SEQ ID NO: 5) with a XbaI restriction site. The resulting 1.1 Kb fragment was cloned into the BglII/XbaI sites of pVL1393 (PharMingen) and pVL1393-MYC. Furthermore an expression construct for a secreted version of egghead was prepared as described for the full length construct but using sense primer Egh003 (5′[…]-3′, SEQ ID NO: 6) with a BglII restriction site and the anti-sense primer Egh002. The resulting 1 Kb fragment was cloned into pAcGP67 Baculo-virus expression vector. Expression constructs pVL-egghead-full and pVL-egghead-Myc-full and pAcGP67-egghead-sol were co-transfected with Baculo-Gold™ DNA (Pharmingen) in Sf9 cells as described (12). Control constructs included pVL-GalNAc-T4-full (8) and pVL-brainiac-full (7). Standard enzyme assays were performed in 50 μl reaction mixtures containing 25 mM HEPES-KOH (pH 7.4), 10 mM MgCl2, 0.1% n-octylgalactoside (Sigma), and 100 μM GDP-[^14C]-Man (2,000 cpm/nmol) (Amersham), and varying concentration of acceptor substrates (purchased from Fluka, Merck, Sigma and Toronto Research Chemicals Inc; see Table I for structures). Assays with brainiac were carried out in the same reaction mixture except for addition of UDP-[^14C]GlcNAc (3,000 cpm/nmol) (Amersham) and MnCl2. Enzyme sources were microsomal fractions of baculo-virus infected Sf9 and High Five™ cells prepared essentially as described by Weis et al. (1998). Briefly, cells were lysed in lysis buffer (25 mM Tris-HCl pH 7.4, 250 mM Sucrose), after incubation 30 min on ice cells were homogenized and lysate centrifuged at 1000×G. Glycerol were added to 20% and membrane pellets were obtained by 100.000×g. Pellets were used at 10 mg/ml (Protein concentration determined by BCA, Pierce). Reaction products of soluble acceptors were quantified by chromatography on Dowex AG1-X8 (Sigma). Assays with glycosphingolipids included 5 mM 2-Acetamido-2-deoxy-D-Glucono-1,5-lactone (inhibitor of hexosaminidase activity), and products were purified on octadecyl-silica cartridges (Supelco) and analyzed by high performance thin-layer chromatography followed by autoradiography.

Setting [1] is: acceptor substrate, GDP-Man donor, read-out: apparent Km of acceptor substrate.

Where two headings read alike, the source gives them in different places.

Regarding `C[C@H](CCC(=O)NCCC[N+](C)(C)CCCS(=O)(=O)[O-])[C@H]1CC[C@H]2[C@@H]3[C@H](O)C[C@@H]4C[C@H](O)CC[C@]4(C)[C@H]3C[C@H](O)[C@]12C` [CHAPS], the “effect of CHAPS on egghead activity” value (concentration not given, to a lesser extent than n-octylgalactoside) is on record as “activated”.

As for `[Ca+2].[Cl-].[Cl-]` [CaCl2], the “effect of divalent cation salt on enzyme activity” value (shortened to “effect of divalent cation salt”) was “had no effect”.

Turning to `O=C[C@H](O)[C@@H](O)[C@H](O)[C@H](O)CO` [D-Glucose], the “acceptor substrate activity (in words)” value (GDP-Man donor) is “marked increase in GDP-Man transferase activity”.

Consider `C[C@@H]1O[C@H](Oc2ccc([N+](=O)[O-])cc2)[C@@H](O)[C@H](O)[C@@H]1O` [Fucβ1-pNph], for which, where the note is “GDP-Man donor”, the “Substrate specificities of Egghead β1-4-mannosyltransferase, activity at 1 mM” value (from here on “Substrate specificities … at 1 mM”) came to 0.0 nmol/h/mg and the “Substrate specificities of Egghead β1-4-mannosyltransferase, activity at 5 mM” value (shortened to “Substrate specificities … at 5 mM”) came to 0.0 nmol/h/mg.

For `Nc1nc2c(ncn2[C@@H]2O[C@H](COP(=O)(O)OP(=O)(O)O[C@H]3O[C@H](CO)[C@@H](O)[C@H](O)[C@@H]3O)[C@@H](O)[C@H]2O)c(=O)[nH]1` [GDP-Man, GDP-mannose], the “donor substrate utilisation by egghead (in words)” value (from here on “donor substrate utilisation”) is “strict donor substrate specificity”. Also, where the note is “donor substrate, with n-octyl-β-Glc acceptor substrate, read-out: apparent Km for GDP-Man”, the Km turned out to be 58 ± 6.2 µM.

As to `CC(=O)N[C@H]1[C@H](Oc2ccc([N+](=O)[O-])cc2)O[C@H](CO)[C@H](O)[C@@H]1O` [GalNAcβ1-pNph], the “Substrate specificities … at 1 mM” value (GDP-Man donor) is on record as 0.0 nmol/h/mg.

Turning to `Cc1cc(=O)oc2cc(O[C@@H]3O[C@H](CO)[C@H](O)[C@H](O)[C@H]3O)ccc12` [Galβ1-MeUmb], the “Substrate specificities … at 1 mM” value (GDP-Man donor) was 0.0 nmol/h/mg.

Take `CCCCCCCCO[C@@H]1O[C@H](CO)[C@H](O)[C@H](O)[C@H]1O` [Galβ1-n-Octyl]: under “GDP-Man donor”, the “Substrate specificities … at 1 mM” value is on record as 0.0 nmol/h/mg and the “Substrate specificities … at 5 mM” value worked out at 0.0 nmol/h/mg.

Turning to `O=[N+]([O-])c1ccc(O[C@@H]2O[C@H](CO)[C@H](O)[C@H](O)[C@H]2O)cc1` [Galβ1-pNph], the “Substrate specificities … at 1 mM” value (GDP-Man donor) was 0.0 nmol/h/mg.

Take `CC(=O)N[C@H]1[C@H](Oc2ccc3c(C)cc(=O)oc3c2)O[C@H](CO)[C@@H](O)[C@@H]1O` [GlcNAcβ1-MeUmb]: where the note is “GDP-Man donor”, the “Substrate specificities … at 1 mM” value turned out to be 0.2 nmol/h/mg and the “Substrate specificities … at 5 mM” value was determined as 0.0 nmol/h/mg.

For `CC(=O)N[C@H]1[C@H](Oc2ccc([N+](=O)[O-])cc2)O[C@H](CO)[C@@H](O)[C@@H]1O` [GlcNAcβ1-pNph], the “Substrate specificities … at 1 mM” value (GDP-Man donor) came out at 0.0 nmol/h/mg.

With `Cc1cc(=O)oc2cc(O[C@@H]3O[C@H](CO)[C@@H](O)[C@H](O)[C@H]3O)ccc12` [Glcα1-MeUmb], for the setting “GDP-Man donor”, the “Substrate specificities … at 1 mM” value is 1.2 nmol/h/mg and the “Substrate specificities … at 5 mM” value is on record as 12.9 nmol/h/mg.

Consider `CCCCCCCCO[C@H]1O[C@H](CO)[C@@H](O)[C@H](O)[C@H]1O` [Glcα1-n-Octyl], for which, under “GDP-Man donor”, the “Substrate specificities … at 1 mM” value was found to be 3.6 nmol/h/mg and the “Substrate specificities … at 5 mM” value came out at 6.5 nmol/h/mg.

Consider `Cc1cc(=O)oc2cc(O[C@@H]3O[C@H](CO)[C@@H](O)[C@H](O)[C@H]3O)ccc12` [Glcβ1-MeUmb], for which, under “GDP-Man donor”, the “Substrate specificities … at 1 mM” value came to 330.0 nmol/h/mg and the “Substrate specificities … at 5 mM” value was 611.4 nmol/h/mg.

As to `[2H]C([2H])([2H])C([2H])([2H])C([2H])([2H])C([2H])([2H])C([2H])([2H])C([2H])([2H])C([2H])([2H])C([2H])([2H])OC1([2H])O[C@]([2H])(C([2H])([2H])O)[C@@]([2H])(O)[C@]([2H])(O)[C@@]1([2H])O` (stereo partly drawn) [Glcβ1-n-Octyl, n-octyl-β-glucoside], for the setting “GDP-Man donor”, the “Substrate specificities … at 1 mM” value amounted to 442.8 nmol/h/mg and the “Substrate specificities … at 5 mM” value was determined as 732.6 nmol/h/mg.

On to `CCCCCCCCOC1O[C@H](CO)[C@@H](O)[C@H](O)[C@H]1O` (stereo partly drawn) [Glcβ1-n-Octyl, n-octyl-β-glucoside], for which the Michaelis constant (Km) under setting [1] was 670 ± 80 µM.

On to `O=[N+]([O-])c1ccc(O[C@@H]2O[C@H](CO)[C@@H](O)[C@H](O)[C@H]2O)cc1` [Glcβ1-pNph], for which, where the note is “GDP-Man donor”, the “Substrate specificities … at 1 mM” value is reported as 378.6 nmol/h/mg and the “Substrate specificities … at 5 mM” value was determined as 561.4 nmol/h/mg. The Km under setting [1] worked out at 1100 ± 300 µM.

Take `OC[C@H]1O[C@H](OCc2ccccc2)[C@@H](O)[C@@H](O)[C@@H]1O` [Manα-1-Bzl]: the “Substrate specificities … at 1 mM” value (GDP-Man donor) is on record as 0.0 nmol/h/mg.

As to `CC(=O)N[C@H]1C(O)O[C@H](CO)[C@@H](O[C@@H]2O[C@H](CO)[C@@H](O)[C@H](O)[C@@H]2O)[C@@H]1O` (stereo partly shown) [Manβ1-4GlcNAc], under “GDP-Man donor”, the “acceptor substrate activity (in words)” value was “no activity”; the “Substrate specificities … at 1 mM” value is 0.0 nmol/h/mg; the “Substrate specificities … at 5 mM” value worked out at 0.0 nmol/h/mg.

For the compound `CCCCCCCCO[C@@H]1O[C@H](CO)[C@@H](O[C@@H]2O[C@H](CO)[C@@H](O)[C@H](O)[C@@H]2O)[C@H](O)[C@H]1O` [Manβ1-4Glcβ1-n-Octyl], under “GDP-Man donor”, the “acceptor substrate activity (in words)” value is “no activity”; the “Substrate specificities … at 1 mM” value is recorded as 0.0 nmol/h/mg; the “Substrate specificities … at 5 mM” value is given as 0.0 nmol/h/mg.

Turning to `Cc1cc(=O)oc2cc(O[C@@H]3O[C@H](CO)[C@@H](O)[C@H](O)[C@@H]3O)ccc12` [Manβ1-MeUmb], for the setting “GDP-Man donor”, the “Substrate specificities … at 1 mM” value stood at 97 nmol/h/mg and the “Substrate specificities … at 5 mM” value is 171.4 nmol/h/mg.

With `O=[N+]([O-])c1ccc(O[C@@H]2O[C@H](CO)[C@@H](O)[C@H](O)[C@@H]2O)cc1` [Manβ1-pNph], under “GDP-Man donor”, the “Substrate specificities … at 1 mM” value was determined as 98.6 nmol/h/mg and the “Substrate specificities … at 5 mM” value was determined as 182.9 nmol/h/mg. In addition, the Km under setting [1] amounted to 2300 ± 500 µM.

For `[Cl-].[Cl-].[Mg+2]` [MgCl2], the “effect of divalent cation salt” value is “activated”.

On to `[Cl][Mn][Cl]` [MnCl2], for which the “effect of divalent cation salt” value is on record as “activated”.

Regarding `CC(=O)N[C@H]1[C@@H](OP(=O)(O)OP(=O)(O)OC[C@H]2O[C@@H](n3ccc(=O)[nH]c3=O)[C@H](O)[C@@H]2O)O[C@H](CO)[C@H](O)[C@@H]1O` [UDP-GalNAc], the “donor substrate utilisation” value is “did not utilize”.

Regarding `CC(=O)N[C@H]1[C@@H](OP(=O)(O)OP(=O)(O)OC[C@H]2O[C@@H](n3ccc(=O)[nH]c3=O)[C@H](O)[C@@H]2O)O[C@H](CO)[C@@H](O)[C@@H]1O` [UDP-GlcNAc], the “donor substrate utilisation” value is “did not utilize”.

In the case of `Cc1cc(=O)oc2cc(O[C@@H]3OC[C@@H](O)[C@H](O)[C@H]3O)ccc12` [Xylβ1-MeUmb], the “Substrate specificities … at 1 mM” value (GDP-Man donor) is 0.0 nmol/h/mg.

For `CCCCCCCCO[C@@H]1O[C@H](CO)[C@H](O)[C@H](O)[C@H]1O` [n-octylgalactoside], under “3.4 mM (0.1%), microsomal membranes”, the “effect of n-octylgalactoside on egghead activity” value is given as “activated”.

Turning to Triton X-100, where the note is “detergent at 0.1%, microsomal membranes”, the “effect of detergent on egghead activity” value is reported as “inhibited”.

By Km is commonly meant the substrate concentration at which the rate is half of its maximum.
